Measurements taken from article PMC10453699 (Current Issues in Molecular Biology, 2023).
Several values for one entry are separate records, joined by “and”; a condition that tells them apart may be missing. Equal values may be shown once. Entries after “also recorded” stand apart in the source; their conditions may differ. Read-outs that look alike come from different tables or passages of the source.

Experiments:
COX-2 = test: Western blot of COX-2 protein in TNF-α/IFN-γ-treated HSEIC; format: cell-based, human; settings: for COX-2 protein levels relative to GAPDH: cotreatment experiments (Figures 7-15), single and combined doses given with the value
IL-6 = format: cell-based, human; settings: cotreatment experiments (Figures 7-15), single and combined doses given with the value; vs TNF-α/IFN-γ group
[1] = system: human small intestinal epithelial cells (HSEIC); settings: for cell viability (MTT absorbance at 595 nm): vs vehicle control, doses given with the value; for Long-Term Cytotoxicity / Short-Term Cytotoxicity: MTT in HSEIC, N/A = no cytotoxicity seen; for Long-Term Cytotoxicity: doses cytotoxic after long exposure; for Short-Term Cytotoxicity: doses cytotoxic after short exposure; for cytotoxic effects overall (MTT): over all doses and time points tested (24-96 h), or time not stated
[2] = system: dextran sulfate sodium-induced colitis; design: method as in PMID 34478286; settings: 20 mg/kg, consumed orally for 17 days; cited from earlier work
[3] = system: porcine intestinal epithelial cells; design: method as in PMID 32735667; settings: pretreatment with 100 μM; cited from earlier work
[4] = single ligands (Figure 6), vs TNF-α/IFN-γ group, doses given with the value

SMILES	Fold Change of COX-2 (COX-2) [×]	Most Effective Dose (COX-2) [µM]	COX-2 protein levels relative to GAPDH (COX-2; vs TNF-α/IFN-γ group)	normalized COX-2 levels (COX-2/GAPDH) (COX-2; [4])	IL-6 protein levels relative to GAPDH (IL-6)	cell viability (MTT absorbance at 595 nm) ([1]; 24 h exposure)	cell viability (MTT absorbance at 595 nm) ([1]; 48 h exposure)	cell viability (MTT absorbance at 595 nm) ([1]; 72 h exposure)	cell viability (MTT absorbance at 595 nm) ([1]; 96 h exposure)	Long-Term Cytotoxicity [1] [µM]	Short-Term Cytotoxicity [1] [µM]	cytotoxic effects overall (MTT) [1]	COX-2 levels decreased by (COX-2) [×]	further results
CC(=O)Oc1cccc2[nH]cc(CCN(C)C)c12 [4-AcO-DMT, 4-Acetoxy-N,N-dimethyltryptamine]	−1.5	20	only the combination of 20 μM of 4-AcO-DMT with 0.5 μM of Cap and 40 μM of 4-AcO-DMT significantly reduced the COX-2 levels; also recorded: significantly reduced in the 10 μM of 4-AcO-DMT, 25 μM of Eug, 20 μM of 4-AcO-DMT combined with 25 μM of Eug, 40 μM of 4-AcO-DMT, and 40 μM of 4-AcO-DMT combined with 25 μM of Eug groups	significant decrease in the relative COX-2 levels at the concentrations of 10 (p < 0.01), 20 (p < 0.0001), and 40 μM and 5 μM significantly increased relative COX-2 levels	significantly reduced only in the 20 μM of 4-AcO-DMT combined with 25 μM of Eug, 40 μM of 4-AcO-DMT, and 40 μM of 4-AcO-DMT combined with 25 μM of Eug groups; also recorded: IL-6 was upregulated in the 10 μM of 4-AcO-DMT, 25 μM of Eug, 10 μM of 4-AcO-DMT combined with 25 μM of Eug, and 20 μM of 4-AcO-DMT group	doses of 10, 20, 40, 80, and 160 μM significantly increased the cell viability	doses of 10, 20, 40, 80, and 160 μM significantly increased the cell viability	5 (p < 0.01), 10 (p < 0.0001), 20 (p < 0.01), 40, 80, and 100 μM (p < 0.0001) significantly increased the cell viability	all doses significantly increased (p < 0.0001) the cell viability					
COc1cc(CNC(=O)CCCC/C=C/C(C)C)ccc1O [Cap, capsaicin]	−1.6	0.5	effectively reduced COX-2 levels	a reduction in COX-2 levels was observed only at a dose of 0.5 μM; also recorded: both 0.1 and 1 μM showed a trend towards decreased normalized COX-2/GAPDH levels		50 μM after 24 h (p < 0.05), 100 μM after 24 and 48 h (p < 0.05), and 200 μM after 24 h (p < 0.01) and 48 h (p < 0.0001) significantly decreased the cell viability	50 μM after 24 h (p < 0.05), 100 μM after 24 and 48 h (p < 0.05), and 200 μM after 24 h (p < 0.01) and 48 h (p < 0.0001) significantly decreased the cell viability			≥0.5	≥50	did not demonstrate significant cytotoxicity in either the short- or long-term doses tested		
COc1cc(/C=C/C(=O)CC(=O)/C=C/c2ccc(O)c(OC)c2)ccc1O [Cur, curcumin]		0.5					cytotoxic effects across all doses	cytotoxic effects across all doses	cytotoxic effects across all doses	≥1	≥5	most substantial and severe decreases in cell viability were observed at 20, 40, and 80 μM	3.8	normalized COX-2 levels (COX-2/GAPDH) (COX-2): Psi (40 μM), Cur (0.5 μM), and Eug (50 μM) significantly reduced COX-2 levels without cytotoxic effects; also recorded: significantly reduced normalized COX-2 levels at concentrations of 0.5 (p < 0.0001), 2.5 (p < 0.01), 5, and 10 μM; Long-Term Cytotoxicity ([1]; listed as Curcumin): ≥ 1 µM; Short-Term Cytotoxicity ([1]; listed as Curcumin): ≥ 5 µM
C=CCc1ccc(O)c(OC)c1 [Eug, eugenol]	−3.8		significantly reduced in the 10 μM of 4-AcO-DMT, 25 μM of Eug, 20 μM of 4-AcO-DMT combined with 25 μM of Eug, 40 μM of 4-AcO-DMT, and 40 μM of 4-AcO-DMT combined with 25 μM of Eug groups	Psi (40 μM), Cur (0.5 μM), and Eug (50 μM) significantly reduced COX-2 levels without cytotoxic effects	IL-6 was upregulated in the 10 μM of 4-AcO-DMT, 25 μM of Eug, 10 μM of 4-AcO-DMT combined with 25 μM of Eug, and 20 μM of 4-AcO-DMT group	10 (p < 0.01), 100 (p < 0.05), 200 (p < 0.01), 400 (p < 0.001), and 800 (p < 0.0001) μM of eugenol decreased the cell viability	exposure to 50 (p < 0.001), 100 (p < 0.001), 200 (p < 0.0001), 400 (p < 0.0001), and 800 μM (p < 0.0001) for 48 h significantly reduced the cell viability	only 200 (p < 0.001), 400 (p < 0.0001), and 800 μM (p < 0.0001) of eugenol significantly reduced the cell viability	all doses reduced the cell viability	≥10	≥10	demonstrated both short-term and long-term cytotoxic effects	3.8	Most Effective Dose (COX-2; dose most effective in lowering COX-2 (and IL-6) in TNF-α/IFN-γ-treated HSEIC): 50 µM; normalized COX-2 levels (COX-2/GAPDH) (COX-2; single ligands (Figure 6), vs TNF-α/IFN-γ group, doses given with the value, listed as eugenol): remarkable efficacy in reducing the normalized COX-2 levels at all tested concentrations; pathological scores [2]: reduced the pathological scores; LPS-induced IL-8 and TNF-α transcript levels [3]: significantly suppress the LPS-induced IL-8 and TNF-α transcript levels; Long-Term Cytotoxicity ([1]; listed as Eugenol): ≥ 10 µM; Short-Term Cytotoxicity ([1]; listed as Eugenol): ≥ 10 µM
O=C(c1ccc(F)cc1)C1CCN(CCn2c(=O)[nH]c3ccccc3c2=O)CC1 [Ket, ketanserin]		1		Only 1 (p < 0.0001) and 10 μM (p < 0.01) of ketanserin significantly lowered COX-2 levels and 20 μM of ketanserin led to a significant increase in the normalized COX-2 levels and higher doses significantly increased COX-2 levels										
CN(C)CCc1c[nH]c2cccc(OP(=O)(O)O)c12 [Psi, psilocybin]	−3.8	40	effectively reduced COX-2 levels and 40 μM psilocybin all significantly decreased the COX-2 levels	Psi (40 μM), Cur (0.5 μM), and Eug (50 μM) significantly reduced COX-2 levels without cytotoxic effects	20 μM psilocybin and 10 μM psilocybin combined with 0.5 μM curcumin showing the most significant reductions and the 10 μM psilocybin treatment group, which significantly upregulated the IL-6 levels	significantly increased the number of viable cells at doses of 20 (p < 0.001), 40, 80, and 160 μM	increased the cell viability at 20 (p < 0.01), 40 (p < 0.001), 80, and 160 μM		80 (p < 0.05) and 160 μM (p < 0.0001) of psilocybin for 96 h significantly increased the cell viability					normalized COX-2 levels (COX-2/GAPDH) (COX-2; single ligands (Figure 6), vs TNF-α/IFN-γ group, doses given with the value, listed as Psilocybin): significant reductions in the normalized COX-2 levels across all concentrations tested (5, 10, 20, and 40 μM)
